From patent US20240180881A1, “METHODS FOR DECREASING RESISTANCE TO CHEMOTHERAPY” (National Institute of Immunology, priority 2022, published 2024)

Experiments:
CT26 cells = assay: Syngeneic or allogenic model, CT26; format: in vivo, BALB/c mice; conditions: for tumour volume, chemoresistance: CPT + compound
Method: Xenografts assays were carried out in BALB/c mice using CT26 cells.
RNA (FIG. 17D) or protein (FIG. 17E) levels of the indicated MDR genes were determined by RT-qPCR or immunoblotting with the indicated antibodies.

[1] = target: T1, RAD54 chromatin remodeling activity (Homo sapiens, UniProt Q92698); assay: REA assay on chromatinized MRP2 array; format: biochemical; conditions: 10 μM compound
T1 construct: GST RAD54 (1-747) (WT), GST BLM (1-1417) (WT), His RAD54 (1-747) (WT); made in house; host or cells: E. coli BL-21 DE3
T1 sequence (Q92698 1-747): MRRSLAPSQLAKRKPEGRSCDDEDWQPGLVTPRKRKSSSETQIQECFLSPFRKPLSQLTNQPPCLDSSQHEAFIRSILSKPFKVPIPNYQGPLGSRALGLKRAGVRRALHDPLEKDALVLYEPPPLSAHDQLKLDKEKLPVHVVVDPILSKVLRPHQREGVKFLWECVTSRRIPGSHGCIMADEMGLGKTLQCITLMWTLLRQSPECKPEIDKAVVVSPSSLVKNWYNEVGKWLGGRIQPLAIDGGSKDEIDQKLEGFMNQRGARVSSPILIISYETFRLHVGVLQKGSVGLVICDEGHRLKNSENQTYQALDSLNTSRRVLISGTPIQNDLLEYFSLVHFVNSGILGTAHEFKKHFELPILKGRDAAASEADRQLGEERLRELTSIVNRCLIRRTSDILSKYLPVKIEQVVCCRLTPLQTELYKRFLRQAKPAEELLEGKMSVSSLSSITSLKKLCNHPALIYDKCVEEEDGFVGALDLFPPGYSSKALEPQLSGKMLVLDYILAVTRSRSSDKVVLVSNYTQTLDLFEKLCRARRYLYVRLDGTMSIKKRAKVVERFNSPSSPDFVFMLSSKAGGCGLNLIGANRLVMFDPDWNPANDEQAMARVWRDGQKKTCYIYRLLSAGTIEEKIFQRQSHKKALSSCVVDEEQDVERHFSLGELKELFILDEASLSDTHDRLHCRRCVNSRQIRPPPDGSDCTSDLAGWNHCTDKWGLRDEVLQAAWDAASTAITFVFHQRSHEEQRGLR
Text: (§1) The data was from three independent experiments.
as §1
(§2) The data is from three independent experiments.

[2] = system: HCT116 IC60 1-OHPR tumors; assay: Xenograft model, oxaliplatin resistant cells; format: in vivo, NSG mice; conditions: 1-OHP 2 mg/kg + compound 5 mg/kg, compared to 1-OHP alone
Method: Tumors from different groups were excised at the end of the experiments. […] For these experiments, RNA and protein was isolated from tumors obtained at the end point of the xenograft experiment. RNA and the protein levels of MRP2 were determined by RT-qPCR and western blotting with anti-MRP2 antibody. For each group three tumor samples were analyzed (FIG. 6F, 6G). […] The levels of the indicated MDR genes were quantitated from three tumor samples from each group. Mean±S.D. (FIG. 13A). […] The experiment was repeated three times and one representative experiment has been shown (FIG. 13B).
In all cases tumor volume were measured at the indicated days post-injection using the following formula: Tumor volume=½(length×width2).

RAD54 ATPase activity = target: T2, RAD54 ATPase activity (Homo sapiens, UniProt Q92698); assay: ATPase assay; format: biochemical; conditions: 10 μM compound
T2 construct: made in house; host or cells: E. coli BL-21 DE3
T2 sequence (Q92698 1-747): T1 sequence (Q92698 1-747)
Method: The data is from three independent experiments. Mean±S.D.
The presence of the disruptors also led to a decrease in the ATP binding to RAD54.
Assay for RAD54 ATPase activity was carried out as per the previously published protocol (Srivastava et al., 2009). His-RAD54 (120 nM) was incubated with the GST-BLM (1-212) or BLM_peptide or SCM_peptide (180 nM). […] 1 μl of the sample was spotted on the polyethyleneimine-coated TLC plate, resolved in 1M Formic Acid and 0.3M LiCl. The products of ATP hydrolysis were then visualized by Phosphoimager scans taken in Typhoon™ laser-scanner platform (Cytiva) and quantitated using the inbuilt software.

[3] = target: T1, RAD54 chromatin remodeling activity; assay: Restriction enzyme accessibility (REA) assay on chromatinized G5E4 array; format: biochemical; conditions: 10 μM compound, +ATP
Text: as §2, §2

His-RAD54 WT [4] = target: T3, His-RAD54 WT (Homo sapiens, UniProt Q92698); assay: Tryptophan fluorescence assay; format: binding; conditions: compound, from 10 nM
T3 construct: made in house; host or cells: E. coli BL-21 DE3
T3 sequence (Q92698 1-747): T1 sequence (Q92698 1-747)
Method: To determine how BLM peptide affects ATP binding and hydrolysis, tryptophan fluorescence assays were carried out using full-length recombinant RAD54 in presence of either BLM_peptide or SCM_peptide (FIG. 2H). Tryptophan fluorescence assays were carried out with RAD54 WT alone or RAD54 WT in presence of the indicated concentrations of either BLM_peptide (upper panel) or SCM_peptide (lower panel). The experiment was repeated three times and one representative experiment has been shown.
RAD54 fluorescence was measured in a fluorometer.
Tryptophan fluorescence measurements were performed on a Fluoromax Spectrofluorimeter (Horiba-Jobin Yvon Fluoromax 4). Recombinant His-RAD54 (500 nM) was excited at 280 nm and the emission intensity monitored at regular intervals from 295 nm to at least 450 nm.

His-RAD54 WT [5] = target: T3, His-RAD54 WT; assay: Octet Bio-Layer Interferometry (BLI) binding; conditions: His-RAD54 WT immobilized onto Ni-NTA-sensor, 25° C.; read-out: affinity constant (KD)
Method: The interactions between RAD54 and biotinylated BLM_peptide (181-212) as well as the various compounds were studied using Bio-layer interferometry (BLI) using the Octet K2 system (ForteBio Systems). Approximately, 250 μg of His-tagged RAD54 was immobilized onto a Ni-NTA chip for 600 s and the unbound protein was washed using 10 mM HEPES pH 7.5 buffer. […] Each of the reaction set was then used to check for their association with RAD54 captured on the sensor. The kinetics of the RAD54-BLM interaction was monitored for 180 s each for the association and the dissociation curves by dipping the sensors in a series of increasing concentrations of the BLM_peptide. 500 mM NaCl was used as the dissociation buffer. A control sensor with the immobilized RAD54 was used in parallel and was used to normalize the data. Washing in 350 mM EDTA regenerated the sensors for the next cycle of binding kinetics. The experiments were performed at 25° C. All the real-time data was analysed and KD values were determined using the Octet® Evaluation software using 1:1 fitting curves.

With OCCN(CCO)c1nc(N2CCCCC2)c2nc(N(CCO)CCO)nc(N3CCCCC3)c2n1 [C7, Dipyridamole] the “tumour volume, chemoresistance” value (CT26 cells) was “reverses chemoresistance”, the “BLM dependent enhancement of RAD54 chromatin remodeling, fraction uncut” value (“BLM dependent enhancement … fraction uncut” below) [1] was “decreased the efficiency of BLM dependent enhancement of RAD54 chromatin remodelling activity” and the tumor growth [2] was “inhibited the tumor growth”. For the same compound, the “BLM dependent enhancement of ATPase activity of RAD54 (ATP hydrolysis)” value (“BLM dependent enhancement … (ATP hydrolysis)” below) (RAD54 ATPase activity) was “reduced the extent of ATP hydrolysis”, the “BLM (1-212) dependent enhancement of RAD54 chromatin remodeling, fraction uncut” value [3] was “decrease the efficiency of BLM dependent enhancement of RAD54 chromatin remodeling activity” and the “tryptophan fluorescence of RAD54” value (His-RAD54 WT [4]) was “quenched the tryptophan florescence of RAD54 even at 10 nM concentration”. For the same compound, the Kd (His-RAD54 WT [5]) was 5.04 µM.

With CN1CCN(C2=Nc3ccccc3Oc3ccc(Cl)cc32)CC1.O=C(O)CCC(=O)O [C17, Loxapine succinate] the “tumour volume, chemoresistance” value (CT26 cells) was “reverses chemoresistance”, the “RNA and protein levels of the MDR genes in tumours” value (CT26 cells; without or with compound treatment) was “decreased” and the “BLM dependent enhancement … fraction uncut” value [1] was “decreased the efficiency of BLM dependent enhancement of RAD54 chromatin remodelling activity”. The tumor growth [2] was “inhibited the tumor growth”, the “BLM dependent enhancement … (ATP hydrolysis)” value (RAD54 ATPase activity) was “reduced the extent of ATP hydrolysis” and the “BLM (1-212) dependent enhancement of RAD54 chromatin remodeling, fraction uncut” value [3] was “decrease the efficiency of BLM dependent enhancement of RAD54 chromatin remodeling activity”. For the same compound, the “tryptophan fluorescence of RAD54” value (His-RAD54 WT [4]) was “quenched the tryptophan florescence of RAD54 even at 10 nM concentration” and the Kd (His-RAD54 WT [5]) was 0.0803 µM.

In the case of CC(=O)Nc1nnc(S(N)(=O)=O)s1 [C3, Acetazolamide], the “tumour volume, chemoresistance” value (CT26 cells) is reported as “reverses chemoresistance”, the “BLM dependent enhancement … fraction uncut” value [1] is reported as “decreased the efficiency of BLM dependent enhancement of RAD54 chromatin remodelling activity” and the tumor growth [2] is reported as “inhibited the tumor growth”. For the same compound, the “BLM dependent enhancement … (ATP hydrolysis)” value (RAD54 ATPase activity) was “reduced the extent of ATP hydrolysis”, the “BLM (1-212) dependent enhancement of RAD54 chromatin remodeling, fraction uncut” value [3] was “decrease the efficiency of BLM dependent enhancement of RAD54 chromatin remodeling activity” and the “tryptophan fluorescence of RAD54” value (His-RAD54 WT [4]) was “quenched the tryptophan florescence of RAD54 even at 10 nM concentration”. It also gave a Kd (His-RAD54 WT [5]) of 55.8 µM.
